Each structure is given as a SMILES string. Activity calls are given as the source filed them. Bounds are passed on as bounds.

1 compound from ChEMBL document CHEMBL1138937, “Discovery of 3-arylpropionic acids as potent agonists of sphingosine-1-phosphate receptor-1 (S1P1) with high selectivity against all other known S1P receptor subtypes” (Bioorg Med Chem Lett, 2006) can be followed below.

Data set [1] addresses Sphingosine 1-phosphate receptor 1 (Homo sapiens, UniProt P21453). As to the kind of experiment: Agonist activity at S1P1 receptor expressed in CHO cells measured as S1P-induced [35S]GTP-gamma-S uptake. It is filed as functional, cell-based. In general terms: GTPγS resists hydrolysis and so accumulates on activated G proteins.
For data set [2], the target named is Sphingosine 1-phosphate receptor 2 (Homo sapiens, UniProt O95136). Briefly: Activity at S1P2 receptor expressed in CHO cells measured as S1P-induced [35S]GTP-gamma-S uptake. It is filed as functional, cell-based.
Data set [3] concerns the target Sphingosine 1-phosphate receptor 3 (Homo sapiens, UniProt Q99500). Briefly: Agonist activity at S1P3 receptor expressed in CHO cells measured as S1P-induced [35S]GTP-gamma-S uptake. It is filed as functional, cell-based.
Data set [4] has as its target T1, Sphingosine 1-phosphate receptor 4 (Homo sapiens, UniProt O95977).
T1 sequence (O95977 whole entry): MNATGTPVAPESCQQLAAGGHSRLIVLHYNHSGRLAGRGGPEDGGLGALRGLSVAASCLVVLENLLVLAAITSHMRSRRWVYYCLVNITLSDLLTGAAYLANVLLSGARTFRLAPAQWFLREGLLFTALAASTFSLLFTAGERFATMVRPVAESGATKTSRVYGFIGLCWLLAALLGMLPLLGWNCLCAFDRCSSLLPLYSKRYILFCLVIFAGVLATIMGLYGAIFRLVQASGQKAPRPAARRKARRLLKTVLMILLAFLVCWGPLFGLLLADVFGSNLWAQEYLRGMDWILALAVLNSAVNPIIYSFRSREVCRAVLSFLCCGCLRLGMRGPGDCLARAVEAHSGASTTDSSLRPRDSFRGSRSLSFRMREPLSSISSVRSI
As to the kind of experiment: Activity at S1P4 receptor expressed in CHO cells measured as S1P-induced [35S]GTP-gamma-S uptake. It is filed as functional, cell-based.

Data set [5] has as its target Sphingosine 1-phosphate receptor 5 (Homo sapiens, UniProt Q9H228). Briefly: Agonist activity at S1P5 receptor expressed in CHO cells measured as S1P-induced [35S]GTP-gamma-S uptake. It is filed as functional, cell-based.
Data set [6] in a line: Volume of distribution in Sprague-Dawley rat at 1 mg/kg, iv and 2 mg/kg, po. Type of data set: ADME, organism-based. The conditions noted are these: in vivo, read-out: Vss.
A short description of data set [7]: Half life in Sprague-Dawley rat at 1 mg/kg, iv and 2 mg/kg, po. Particulars: in vivo. Type of data set: ADME, organism-based.
Data set [8] can be described thus: Oral bioavailability in Sprague-Dawley rat at 1 mg/kg, iv and 2 mg/kg, po. Type of data set: ADME, organism-based. The conditions noted are these: in vivo.
For data set [9], the system named is Mus musculus. As to the kind of experiment: Lowering of peripheral blood lymphocyte in mouse at 0.3 mg/kg, po relative to control. It is filed as functional, organism-based. More on the design: dose 0.3 mg/kg.
The subject of data set [10] is Rattus norvegicus. As to the kind of experiment: Median graft survival time in Lewis rat skin allograft model at 1.5 mg/kg/day. Type of data set: functional.
Data set [11] deals with Rattus norvegicus. As to the kind of experiment: Median graft survival time in Lewis rat skin allograft model at 4.5 mg/kg/day. Type of data set: functional.
Data set [12] concerns Rattus norvegicus. As to the kind of experiment: Lowering of peripheral blood lymphocyte in Lewis rat at 1.5 mg/kg. More on the design: dose 1.5 mg/kg. Type of data set: functional, organism-based.
For data set [13], the system named is Rattus norvegicus. As to the kind of experiment: Lowering of peripheral blood lymphocyte in Lewis rat at 4.5 mg/kg. It is filed as functional, organism-based. More on the design: dose 4.5 mg/kg.
Data set [14] in a line: Plasma clearance in Sprague-Dawley rat at 1 mg/kg, iv and 2 mg/kg, po. Type of data set: ADME, organism-based.
Data set [15] is filed under the species Homo sapiens. Briefly: Selectivity for S1P1 receptor over S1P3 receptor.
The species named for data set [16] is Homo sapiens. Briefly: Selectivity for S1P1 receptor over S1P5 receptor.
In data set [17] the test system is Rattus norvegicus. As to the kind of experiment: Lowering of peripheral blood lymphocyte in Lewis rat at 1.5 mg/kg/day, ip via osmotic pump.

Sphingosine 1-phosphate receptor 5, sequence (Q9H228 whole entry): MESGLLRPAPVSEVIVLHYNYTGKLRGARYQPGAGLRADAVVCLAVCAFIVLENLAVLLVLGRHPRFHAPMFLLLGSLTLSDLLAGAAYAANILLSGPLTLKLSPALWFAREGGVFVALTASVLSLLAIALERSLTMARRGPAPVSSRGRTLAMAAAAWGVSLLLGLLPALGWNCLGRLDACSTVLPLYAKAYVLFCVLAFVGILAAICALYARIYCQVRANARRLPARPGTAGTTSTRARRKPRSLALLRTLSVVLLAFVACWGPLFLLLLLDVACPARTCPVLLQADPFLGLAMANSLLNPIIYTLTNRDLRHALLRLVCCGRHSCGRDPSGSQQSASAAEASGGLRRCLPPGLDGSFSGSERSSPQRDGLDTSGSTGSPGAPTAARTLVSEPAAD
Sphingosine 1-phosphate receptor 3, sequence (Q99500 whole entry): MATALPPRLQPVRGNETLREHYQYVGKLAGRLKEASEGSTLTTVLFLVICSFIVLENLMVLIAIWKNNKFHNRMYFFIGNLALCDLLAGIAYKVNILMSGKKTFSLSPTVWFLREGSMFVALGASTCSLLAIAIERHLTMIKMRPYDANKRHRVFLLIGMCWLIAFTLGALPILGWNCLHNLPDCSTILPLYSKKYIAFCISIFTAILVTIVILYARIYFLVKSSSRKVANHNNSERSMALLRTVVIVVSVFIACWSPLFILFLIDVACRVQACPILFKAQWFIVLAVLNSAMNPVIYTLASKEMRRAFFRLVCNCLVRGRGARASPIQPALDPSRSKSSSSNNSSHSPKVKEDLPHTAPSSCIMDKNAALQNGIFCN
Sphingosine 1-phosphate receptor 2, sequence (O95136 whole entry): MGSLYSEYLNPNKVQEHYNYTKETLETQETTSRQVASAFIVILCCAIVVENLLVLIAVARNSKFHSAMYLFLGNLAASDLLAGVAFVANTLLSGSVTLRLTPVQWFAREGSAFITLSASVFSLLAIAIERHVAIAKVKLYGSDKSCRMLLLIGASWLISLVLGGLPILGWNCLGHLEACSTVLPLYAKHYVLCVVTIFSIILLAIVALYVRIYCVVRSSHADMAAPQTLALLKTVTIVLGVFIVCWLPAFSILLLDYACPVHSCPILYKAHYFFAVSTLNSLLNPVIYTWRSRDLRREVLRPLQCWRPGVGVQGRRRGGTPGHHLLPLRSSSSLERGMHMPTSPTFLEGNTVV
Sphingosine 1-phosphate receptor 1, sequence (P21453 whole entry): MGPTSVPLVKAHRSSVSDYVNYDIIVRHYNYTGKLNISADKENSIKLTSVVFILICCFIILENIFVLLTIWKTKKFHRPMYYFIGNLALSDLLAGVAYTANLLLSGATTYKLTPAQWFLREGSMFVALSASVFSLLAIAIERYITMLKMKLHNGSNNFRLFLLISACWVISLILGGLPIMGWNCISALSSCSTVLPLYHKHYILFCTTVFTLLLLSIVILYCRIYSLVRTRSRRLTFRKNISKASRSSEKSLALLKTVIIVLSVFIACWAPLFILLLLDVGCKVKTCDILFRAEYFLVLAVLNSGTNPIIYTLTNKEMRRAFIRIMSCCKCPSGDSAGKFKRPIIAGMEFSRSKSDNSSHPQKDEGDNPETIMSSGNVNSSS

For the compound `Cc1cc(CCC(=O)O)ccc1-c1noc(-c2ccc(OCC(F)(F)F)c(C#N)c2)n1`, the EC50 (usually the concentration that produces a half-maximal response) was 0.11 nM in [1]; more than 10000 nM in [2]; 1600 nM in data set [3]; more than 10000 nM in data set [4]; 44 nM in data set [5]. Also, the Vd in [6] stood at 0.1 L/kg. In data set [7], the half-life (in general, the time needed for the level to fall by half in the phase considered) is 36 min. For the same compound, in [8], the bioavailability – broadly, dose-corrected exposure relative to a reference, in per cent – came to 59%. The result in [9], in data set [12], in data set [13] and in data set [17] was Active. For the same compound, the MST in [10] stood at 13 days; in data set [11], 14 days. In data set [14], this compound registered a clearance of 1.2 mL/min/kg. Moreover, the Selectivity ratio was 16000 in data set [15] and 400 in [16].
